# According to ChEMBL document CHEMBL5223128, “Biphenyl-based small molecule inhibitors: Novel cancer immunotherapeutic agents targeting PD-1/PD-L1 interaction” (Bioorg Med Chem, 2022):
# Biological target: T1, Programmed cell death protein 1/Programmed cell death 1 ligand 1 (Homo sapiens, UniProt Q9NZQ7)
# Assay: Inhibition of human PD-1/PDL1 protein-protein interaction by HTRF assay
# Format: protein-complex assay
# T1 sequence (Q15116 whole entry): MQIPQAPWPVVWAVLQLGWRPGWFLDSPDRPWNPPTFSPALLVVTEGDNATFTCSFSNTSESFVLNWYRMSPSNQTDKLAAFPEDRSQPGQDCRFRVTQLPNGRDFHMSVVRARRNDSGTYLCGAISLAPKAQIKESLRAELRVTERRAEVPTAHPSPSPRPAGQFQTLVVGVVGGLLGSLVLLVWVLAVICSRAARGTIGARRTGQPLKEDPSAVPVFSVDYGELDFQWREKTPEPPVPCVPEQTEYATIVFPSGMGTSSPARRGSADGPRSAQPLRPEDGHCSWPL
# T1 sequence (Q9NZQ7 whole entry): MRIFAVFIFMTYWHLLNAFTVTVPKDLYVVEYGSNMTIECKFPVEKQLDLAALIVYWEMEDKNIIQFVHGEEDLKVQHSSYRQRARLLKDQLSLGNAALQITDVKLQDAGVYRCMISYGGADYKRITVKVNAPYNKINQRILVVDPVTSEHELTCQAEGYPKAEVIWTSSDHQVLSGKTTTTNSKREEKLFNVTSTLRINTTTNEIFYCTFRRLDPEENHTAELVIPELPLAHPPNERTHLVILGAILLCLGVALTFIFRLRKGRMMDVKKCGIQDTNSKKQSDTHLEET
row,Compound,IC50 [µM]
1,N#Cc1c(NC(=O)c2nc3c(s2)CNCC3)cccc1-c1ccc2c(c1)OCC2,≤ 0.1
2,Cc1c(-c2ccccc2)cccc1-n1cc2c(n1)CNCC2,≤ 0.1
3,Cc1cc(C(=O)Nc2cccc(-c3ccccc3)c2C)ncc1CNCCO,≤ 0.01
4,COc1cc2oc(-c3cccc(-c4ccccc4)c3C)nc2cc1CNCCO,≤ 0.01
5,N#Cc1c(NC(=O)c2ccc(CNCCO)cn2)cccc1-c1ccccc1,≤ 0.01
6,Cc1c(-c2ccccc2)cccc1-c1nc2c(s1)CNCC2,≤ 0.1
7,Cc1c(-c2ccccc2)cccc1-c1nc2cc(CNCCO)ccc2o1,≤ 0.01
8,Cc1c(-c2ccccc2)cccc1-c1cn2nc(CNCCO)cnc2n1,≤ 0.1
9,Cc1c(Nc2nccc3c(CN4CCCCC4C(=O)O)ccnc23)cccc1-c1ccccc1 (configuration not stated),≤ 0.01
10,Cc1cc(C(=O)Nc2cccc(-c3ccccc3)c2C)ncc1CN1CCCC[C@H]1C(=O)O,≤ 0.01
11,N#Cc1c(NC(=O)c2nc3c(s2)CNCC3)cccc1-c1ccc2c(c1)OCCO2,≤ 0.1
12,Cc1c(-c2ccccc2)cccc1-c1nc2c(o1)CNCC2,≤ 0.1
13,Cc1c(-c2ccccc2)cccc1-c1nc2cc(CN3CCCC[C@H]3C(=O)O)c(OCCCC#N)cc2o1,≤ 0.01
14,Cc1c(NC(=O)c2nc3c(s2)CNCC3)cccc1-c1cccc2[nH]ncc12,≤ 0.1
15,Cc1c(NC(=O)c2nc3c(s2)CNCC3)cccc1-c1cccc2c1cnn2C,≤ 0.1
16,COc1cc(OCc2cccc(-c3ccccc3)c2C)cc(OC)c1CCCC1CC(=O)N1 (configuration not stated),0.022
17,Cc1c(NC(=O)c2nc3c(s2)CNCC3)cccc1-c1ccccc1,≤ 0.1
18,Cc1c(C2=CCCCC2)cccc1-c1nc2c(s1)CNCC2,≤ 0.1
19,Cn1c(C(=O)Nc2cccc(-c3ccc4c(c3)OCCO4)c2C#N)nc2c1CCNC2,≤ 0.1
20,Cc1c(Nc2nccc3cc(CNCCO)cnc23)cccc1C1=CCCCC1,≤ 0.01
21,Cc1c(-c2ccccc2)cccc1-c1nc2ccc(CNCCO)cn2n1,≤ 0.1
22,COc1cccc(-c2cccc(NC(=O)c3nc4c(s3)CNCC4)c2C)c1F,≤ 0.1
23,N#Cc1c(NC(=O)c2nc3c(s2)CNCC3)cccc1C1=CCCCC1,≤ 0.1
24,Cn1cnc2c(-c3cccc(NC(=O)c4ccc(CNCCO)cn4)c3C#N)cccc21,≤ 0.01

row,Compound,IC50 [µM]
1,N#Cc1c(Nc2nccc3cc(CNCCO)cnc23)cccc1-c1ccccc1,≤ 0.01
2,Cc1c(-c2ccccc2)cccc1-c1nc2c(o1)CCNC2,≤ 0.1
3,Cc1c(NC(=O)c2nc3c(s2)CNCC3)cc(F)cc1-c1ccc2c(c1)OCCO2,≤ 0.1
4,COc1cccc(-c2cccc(NC(=O)c3nc4c(s3)CNCC4)c2Cl)c1F,≤ 0.1
5,N#Cc1c(NC(=O)c2nc3c(s2)CNCC3)cccc1-c1c(F)cccc1F,≤ 0.1
6,CCOc1cccc(-c2cccc(-c3nc4c(s3)CNCC4)c2C)c1,≤ 0.1
7,Cc1c(COc2cc(OCc3ccc(OC(F)(F)F)cc3)c(N3CCCCC3C(=O)O)cc2Cl)cccc1-c1ccccc1 (configuration not stated),0.0566
8,O=C(Nc1cccc(-c2ccc3c(c2)OCCO3)c1Cl)c1nc2c(s1)CNCC2,≤ 0.1
9,Cc1c(-c2ccccc2)cccc1-c1nc2cc(CNCCO)c(OCC#N)cc2o1,≤ 0.01
10,N#Cc1c(Nc2nccc3cc(CNCCO)cnc23)cccc1-c1ccc2c(c1)OCCO2,≤ 0.01
11,Cc1c(-c2cccc(C(N)=O)c2)cccc1-c1nc2c(s1)CNCC2,≤ 0.1
12,COc1cc(OC)c(F)c(-c2cccc(-c3nc4c(s3)CNCC4)c2C)c1F,≤ 0.1
13,Cc1c(-c2ccccc2)ccnc1-c1nc2c(s1)CNCC2,≤ 0.1
14,Cc1c(-c2ccccc2)cccc1-c1nc2cc(CNCCO)c(OCCN3CCOCC3)cc2o1,≤ 0.01
15,Cc1cc(C(=O)Nc2cc(F)cc(-c3ccc4c(c3)OCCO4)c2C)ncc1CNCCO,≤ 0.01
16,COc1cccc(-c2cccc(NC(=O)c3cn4c(n3)CNCC4)c2C#N)c1F,≤ 0.1
17,Cc1c(Nc2nccc3cc(CNCCO)cnc23)cccc1-c1ccc2c(c1)OCCO2,≤ 0.01
18,N#Cc1c(NC(=O)c2nc3c(s2)CNCC3)cccc1-c1ccccc1,≤ 0.1
19,N#Cc1c(Nc2nccc3nc(CNCCO)cnc23)cccc1C1=CCCCC1,≤ 0.01
20,Cc1c(-c2ccccc2)cccc1-c1nc2cc(CNCCO)cc(C)c2o1,≤ 0.01
21,Cc1c(NC(=O)c2nc3c(s2)CN(CC(=O)O)CC3)cccc1-c1ccccc1,≤ 0.1
22,Cc1c(-c2ccc3c(c2)OCCO3)cccc1-c1nc2cc(CNCCO)cc(C)c2o1,≤ 0.01
23,Cn1ncc2c(-c3cccc(NC(=O)c4nc5c(s4)CNCC5)c3Cl)cccc21,≤ 0.1
24,N#Cc1c(NC(=O)c2ccc(CNCCO)cn2)cccc1C1=CCCCC1,≤ 0.01

row,Compound,IC50 [µM]
1,N#Cc1c(-c2ccc3c(c2)OCCO3)cccc1-c1nc2c(Cl)cc(CNCCO)cn2n1,≤ 0.1
2,N#Cc1c(NC(=O)c2ccc(CNCCO)cn2)cccc1-c1ccc2c(c1)OCCO2,≤ 0.01
3,Cc1cc(CNCCO)cc2nc(-c3cccc(-c4ccc5c(c4)OCCO5)c3C#N)oc12,≤ 0.01
4,N#CCc1cc(CNCCO)cn2nc(-c3cccc(-c4ccc5c(c4)OCCO5)c3C#N)nc12,≤ 0.1
5,Cc1c(-c2ccccc2)cccc1-c1cn2cc(CNCCO)ncc2n1,≤ 0.1
6,Cc1c(-c2ccccc2)cccc1-c1nc2c(s1)CN(CCCC(=O)O)CC2,≤ 0.1
7,Cc1c(-c2ccccc2)cccc1-c1nc2c(s1)CN(CCO)CC2,≤ 0.1
8,Cc1c(NC(=O)c2nc3c(s2)CNCC3)cccc1-c1ccc2c(c1)OCCO2,≤ 0.1
9,COc1cccc(-c2ccnc(-c3nc4c(s3)CNCC4)c2C)c1,≤ 0.1
10,COc1cccc(-c2cccc(NC(=O)c3nc4c(s3)CNCC4)c2C#N)c1F,≤ 0.1
11,N#Cc1c(-c2ccc3c(c2)OCCO3)cccc1-c1nc2c(C#N)cc(CNCCO)cn2n1,≤ 0.1
12,COc1cccc(-c2cccc(-c3nc4c(s3)CNCC4)c2C)c1,≤ 0.1
13,COc1cc(F)cc(-c2cccc(NC(=O)c3nc4c(s3)CNCC4)c2C#N)c1,≤ 0.1
14,Cc1c(-c2ccc3c(c2)OCCO3)ccnc1-c1nc2c(s1)CNCC2,≤ 0.1
15,Cc1c(-c2cccc(CC(N)=O)c2)cccc1-c1nc2c(s1)CNCC2,≤ 0.1
16,Cn1c(C(=O)Nc2cccc(-c3ccc4c(c3)OCCO4)c2C#N)nc2c1CCN(CCO)C2,≤ 0.1
17,O=C(Nc1cccc(-c2ccccc2)c1Cl)c1nc2c(s1)CNCC2,≤ 0.1
18,Cc1c(-c2ccccc2)cccc1-c1nc2c(CCCC#N)cc(CNCCO)cn2n1,≤ 0.1
19,COc1c(CNCCO)cnc2c(Nc3cccc(-c4ccccc4)c3C)nccc12,≤ 0.01
20,N#Cc1c(NC(=O)c2nc3c(s2)CNCC3)cccc1-c1ccccc1F,≤ 0.1
21,Cc1c(Nc2nccc3cc(CNCCO)cnc23)cccc1-c1ccccc1,≤ 0.01
22,Cc1c(-c2nc3cc(CNCCO)c(OCC#N)cc3o2)cccc1-c1ccccc1F,≤ 0.01
23,COc1cccc(-c2cccc(NC(=O)c3nc4c(n3C)CCNC4)c2C)c1F,≤ 0.1
24,Cc1c(-c2ccccc2)cccc1-c1nc2cc(CN3CCCC[C@H]3C(=O)O)c(OCC#N)cc2o1,≤ 0.01

row,Compound,IC50 [µM]
1,COc1cc(OC)cc(-c2cccc(-c3nc4c(s3)CNCC4)c2C)c1,≤ 0.1
2,Cc1c(-c2ccccc2)cccc1-c1nc2cc(CNCCO)nc(C)n2n1,≤ 0.1
3,Cc1c(Nc2nccc3c(CNCCO)ccnc23)cccc1-c1ccc2c(c1)OCCO2,≤ 0.01
4,Cc1c(-c2ccccc2)ccnc1-c1nc2c(s1)CN(C1CCC(C(=O)O)CC1)CC2 (configuration not stated),≤ 0.1
5,Cc1c(-c2nc3c(s2)CNCC3)cccc1-c1cccc2c1cnn2C,≤ 0.1
6,COc1cccc(-c2cccc(NC(=O)c3nc4c(n3C)CCNC4)c2C#N)c1F,≤ 0.1
7,N#Cc1c(-c2ccc3c(c2)OCCO3)cccc1-c1nc2c(s1)CNCC2,≤ 0.1
8,Cc1c(-c2ccccc2)cccc1-c1nc2cc(CNCCO)c(OCc3ccccn3)cc2o1,≤ 0.01
9,Cc1c(-c2ccc3c(c2)OCCO3)cccc1-c1nc2cc(CN3CCCC[C@H]3C(=O)O)c(OCC#N)cc2o1,≤ 0.01
10,Cc1c(-c2ccccc2)cccc1-c1nc2c(s1)CN(C)CC2,≤ 0.1
11,Cc1c(-c2ccccc2)cccc1-c1nc2c(CC#N)cc(CNCCO)cn2n1,≤ 0.1
12,Cc1c(-c2ccccc2)cccc1-c1nc2c(s1)CN(C[C@H](C)O)CC2,≤ 0.1
13,Cc1c(-c2ccccc2)cccc1-c1nc2c(o1)CCN(C)C2,≤ 0.1
14,Cc1cc(CNCCO)cc2nc(-c3cccc(-c4ccccc4)c3C#N)oc12,≤ 0.01
15,Cn1ncc2c(-c3cccc(NC(=O)c4nc5c(s4)CNCC5)c3C#N)cccc21,≤ 0.1
16,COc1cccc(-c2cccc(NC(=O)c3nc4c(s3)CNCC4)c2C#N)c1,≤ 0.1
17,Cc1c(-c2ccccc2)cccc1-c1nc2cc(CNCCO)ccn2n1,≤ 0.1
18,Cc1c(NC(=O)c2nc3c(s2)CN(CCO)CC3)cccc1-c1ccccc1,≤ 0.1
19,N#Cc1c(NC(=O)c2nc3c(s2)CNCC3)cccc1-c1ccccc1Cl,≤ 0.1
20,COc1cccc(-c2cccc(NC(=O)c3nc4c(n3C)CCN(CCO)C4)c2C#N)c1F,≤ 0.1
21,Cc1c(-c2ccccc2)cccc1-c1nc2c(Cl)cc(CNCCO)cn2n1,≤ 0.1

# Biological target: T1, Programmed cell death protein 1/Programmed cell death 1 ligand 1
# Assay: Inhibition of human PD-1/PDL1 protein-protein interaction
# Format: protein-complex assay
row,Compound,IC50 [µM]
1,COc1cc(OCc2cccc(-c3ccccc3)c2C)cc(OC)c1CCCC1CC(=O)N1 (configuration not stated),0.018

# Biological target: T1, Programmed cell death protein 1/Programmed cell death 1 ligand 1
# Assay: Inhibition of human PD-1/PDL1 protein-protein interaction by luminescence proximity homogeneous assay
# Format: protein-complex assay
row,Compound,IC50 [µM]
1,Cc1c(COc2cc(OCc3ccc(OC(F)(F)F)cc3)c(N3CCCCC3C(=O)O)cc2Cl)cccc1-c1ccccc1 (configuration not stated),1.5

# Biological target: Programmed cell death protein 1 (Homo sapiens, UniProt Q15116)
# Sequence (Q15116 whole entry): as the sequence (Q15116 whole entry) above
# Assay: Binding affinity to human PD-1 assessed as dissociation constant by SPR assay
row,Compound,Kd [µM]
1,O=C(O)[C@@H](CO)NCc1cc(Cl)c(OCc2cccc(-c3ccccc3)c2Br)cc1OCc1ccc2nonc2c1,0.00334

# Biological target: Programmed cell death 1 ligand 1 (Homo sapiens, UniProt Q9NZQ7)
# Sequence (Q9NZQ7 whole entry): as the sequence (Q9NZQ7 whole entry) above
# Assay: Binding affinity to human PDL1 assessed as dissociation constant by MST method
row,Compound,Kd [µM]
1,Cc1c(-c2ccccc2)cccc1N1C(=O)c2cc(CN[C@H](C(=O)O)C(C)O)c(OCc3cccc(C#N)c3)cc2C1=O (some centres not stated),0.0244
